Literature values as cited in paper PMC6819114, “Peptide-conjugated oligonucleotides evoke long-lasting myotonic dystrophy correction in patient-derived cells and mice” (The Journal of Clinical Investigation, 2019).

From the text: Among strategies to improve delivery of ASOs in DM1 skeletal muscles, cell-penetrating peptide conjugates offer an attractive avenue ([22]–[24]). Indeed, systemic administration of advanced Pip6a peptides conjugated with splice-switch oligonucleotides has shown promising results in DMD mice by restoring a truncated but functional dystrophin ([25]). Pip6a is a cell-penetrating peptide composed of a hydrophobic core region flanked on each side by arginine-rich domains containing β-alanine and aminohexanoyl spacers. This peptide sequence has the ability to deliver associated cargoes across the pl ...

Ac-(RXRRBRRXRYQF LIRXRBRXRB)-CO OH [Pip6a, arginine-rich cell-penetrating peptide: hydrophobic core flanked by arginine-rich domains containing β-alanine and aminohexanoyl spacers]
stability to serum proteolysis: stable
